From PubChem BioAssay AID686961 (Sanford-Burnham Center for Chemical Genomics, 2013) come the findings set out here.

Broadly, the IC50 is the point on the concentration scale where inhibition reaches its midpoint.

Activity calls are given as the source filed them.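 The calls were made as follows: active = IC50 at or below 20 µM; inactive = the rest.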

Dual specificity protein phosphatase 3 (Homo sapiens), sequence (P51452 whole entry, looked up): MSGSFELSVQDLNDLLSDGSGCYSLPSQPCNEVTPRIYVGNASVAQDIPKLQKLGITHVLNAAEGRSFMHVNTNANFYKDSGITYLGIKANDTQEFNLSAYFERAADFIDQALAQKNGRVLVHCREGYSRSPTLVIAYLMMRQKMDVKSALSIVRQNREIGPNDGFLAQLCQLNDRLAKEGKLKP

This experiment addresses Dual specificity protein phosphatase 3 (Homo sapiens) (UniProt P51452). As to the kind of experiment: VHR-1 phosphatase inhibitors, dose response, selectivity assay for LMPTP inhibitor project, biochemical, fluorescence, OMFP substrate (AID 686961). As to conditions: recombinant VHR-1 enzyme, OMFP fluorogenic substrate, 50 min.
As for `O=C(CCCOc1ccc(Cl)cc1Cl)NNC(=O)c1ccc(NC(=O)c2ccccc2)cc1`, the IC50 is 0.7 µM.

`Cc1cc(N2CCN(S(=O)(=O)c3ccc(Cl)c(Cl)c3)CC2)c2ccccc2n1`: the IC50 result was “inactive”.

`COc1ccc(-c2ccc(/C=N/NC(=O)c3cccnc3)o2)c([N+](=O)[O-])c1`: the IC50 is 9.62 µM.

`CCOc1cc(/C=N/N=C2/NC(=O)C(CC(=O)O)S2)ccc1OCc1ccc(Cl)cc1Cl` (stereo unspecified): the IC50 was 3.31 µM.

In the case of `O=C(CCN1C(=O)/C(=C/c2ccc3c(c2)OCO3)SC1=S)Nc1ccc(C(=O)O)cc1`, the IC50 was 13 µM.

As for `Cc1cc(N2CCC(C)CC2)nc2cccc(O)c12`, the IC50 was 19.5 µM.

In the case of `Nc1nc(N)c(Cc2ccc(Cl)cc2Cl)c(N)n1`, the IC50 entry is “inactive”.

As to `CCCCC(=O)Nc1ccc(C(=O)NNC(=O)c2ccc(C)c(Br)c2)cc1`, the half-inhibitory concentration (IC50) was 3.82 µM.

`Cc1cc2oc(=O)cc(-c3cc4ccccc4o3)c2cc1O`: the IC50 was 2.9 µM.

`Cc1ccc(-c2nc(NCc3cccnc3)c3ccccc3n2)cc1`: the IC50 result was “inactive”.

In the case of `O=C(/C=C/c1ccc(Br)cc1)NC(=O)c1ccccc1O`, the half-maximal inhibitory concentration (IC50) was 10.5 µM.

With `COc1ccc(Nc2nc(=O)c3cc([N+](=O)[O-])ccc3s2)cc1`, the IC50 is 3.92 µM.

As to `Cc1ccccc1Nc1cc(C)c2c(O)cccc2n1`, the IC50 was > 80 µM (inactive).

For `Cc1c(CCC(=O)O)c(=O)oc2c(C)c(OCc3ccccc3Cl)ccc12`, the IC50 entry is “inactive”.

In the case of `CC(=O)Nc1ccc(CNc2nc(NCc3cccs3)nc3ccsc23)cc1`, the 50% inhibitory concentration (IC50) is 9.27 µM.

As for `C/C(=N\NC(=O)c1ccc(OC2OCCOC2Oc2ccc(C(=O)N/N=C(\C)c3ccncc3)cc2)cc1)c1ccncc1` (stereo unspecified), the IC50 is 6.01 µM.

With `COc1cccc2c1[C@@H]1CN(CCCCn3c(=O)[nH]c4c(sc5ncc(-c6ccccc6)nc54)c3=O)C[C@@H]1CO2`, the half-inhibitory concentration (IC50) is 2.41 µM.

As to `CCc1nc(N)nc(N)c1-c1ccc(NCCN)c([N+](=O)[O-])c1`, the IC50 was 10.8 µM.

`COc1ccccc1CNc1nc(NCc2cnc(C)cn2)c2sccc2n1`: the IC50 entry is “inactive”.

For the compound `COc1ccc(Nc2nc(NCc3cccs3)nc3ccsc23)cc1OC`, the IC50 is 12.4 µM.

As for `Cc1[nH]ccc(=O)c1Cc1c(Cl)cccc1Cl`, the IC50 was > 80 µM (inactive).

Regarding `COc1cccc(N2CCN(C(=O)c3ccc(CSc4nc5ccncc5[nH]4)cc3)CC2)c1`, the IC50 is 12.4 µM.

For the compound `CCOC(=O)C1=C(C)N=c2sc(=Cc3ccc(OCC(=O)O)cc3)c(=O)n2C1c1ccc(Cl)cc1` (stereo unspecified), the IC50 is 2.63 µM.

Turning to `O=C(N/N=C/c1ccc(OC(=O)c2cccs2)cc1)c1cccc(F)c1`, the IC50 was 5.57 µM.

For the compound `O=C(OCCNc1nc(-c2ccccc2)nc2ccccc12)c1cccnc1`, the IC50 is > 80 µM (inactive).

For `O=C(Nc1ccc2oc(-c3ccccc3F)nc2c1)c1ccc([N+](=O)[O-])o1`, the IC50 was 1.59 µM.

For the compound `CCc1nc(N)nc(N)c1-c1ccc(Cl)c(N=[N+]=[N-])c1`, the IC50 entry was “inactive”.

`CCN(c1ccccc1)S(=O)(=O)c1cc(C(=O)O)ccc1C`: the IC50 was 2.05 µM.

As for `c1ccc(-c2nc(NCCCN3CCOCC3)c3ccccc3n2)cc1`, the IC50 was > 80 µM (inactive).

For `CCOC(=O)C1=C(C)N=c2sc(=Cc3ccc(OCC(=O)O)cc3)c(=O)n2C1c1ccc(SC)cc1` (stereo unspecified), the IC50 is 1.83 µM.

As to `CC(C)OCCCNc1nc(-c2ccccc2)nc2ccccc12`, the IC50 result is “inactive”.

Consider `CCOC(=O)c1cc(-c2ccc(N3CCOCC3)cc2)nn1-c1ccccc1C(=O)O`, for which the IC50 was 5.89 µM.

`O=C(OCCNc1nc(-c2ccccc2)nc2ccccc12)c1ccncc1`: the IC50 was > 80 µM (inactive).

In the case of `Fc1ccccc1-c1nc(NC2CCCC2)c2ccccc2n1`, the IC50 result was “inactive”.

In the case of `Cc1[nH]ccc2cc3nc4ccccc4c3cc12`, the IC50 is 17.6 µM.

For the compound `CCOC(=O)Cn1c(=NC(=O)c2sc3ccccc3c2Cl)sc2cc(S(N)(=O)=O)ccc21`, the concentration for half-maximal inhibition (IC50) is 0.4 µM.

Take `O=C(NNC(=O)c1cc2cc3ccccc3nc2s1)c1cccc(Cl)c1`: the IC50 is 2.01 µM.

Turning to `NS(=O)(=O)c1ccc(CNC(=O)Cc2cccs2)cc1`, the IC50 is 1.4 µM.

Consider `NC(=O)Cc1ccc(C(=O)CSc2nnc(-c3ccncc3)n2C2CC2)s1`, for which the IC50 is 1.49 µM.

As to `Fc1ccccc1-c1nc(NCCCN2CCOCC2)c2ccccc2n1`, the IC50 is > 80 µM (inactive).

Turning to `O=C(N/N=C/c1cccc(Br)c1)c1ccc(Br)cc1`, the concentration for half-maximal inhibition (IC50) is 11.1 µM.

Take `O=c1cc(-c2cc3ccccc3o2)c2cc(O)ccc2o1`: the IC50 was 5.57 µM.

As for `Cc1ccc(-c2nc(NC(=O)CSc3cc(C)c4ccccc4n3)ns2)cc1`, the IC50 is 1.27 µM.

Regarding `Cc1c(CCC(=O)O)c(=O)oc2c(C)c3occ(-c4ccc(Cl)cc4)c3cc12`, the IC50 was 5.41 µM.

As for `CC(C)Oc1ccc(-c2nc(NCC3CCCO3)c3ccccc3n2)cc1` (stereo unspecified), the IC50 result was “inactive”.

On to `COc1cccc(CNc2nc(NCC3CC3)nc3ccsc23)c1OC`, for which the half-inhibitory concentration (IC50) is 14.3 µM.

On to `CCc1nc(N)nc(N)c1-c1ccc(Cl)cc1`, for which the IC50 is > 80 µM (inactive).

`c1ccc(-c2nc(NCc3cccnc3)c3ccccc3n2)cc1`: the IC50 is > 80 µM (inactive).

On to `CC(Nc1nc(N2CCNCC2)nc2ccccc12)c1ccccc1` (stereo unspecified), for which the IC50 was 1.38 µM.

Regarding `CN1/C(=C/C=C/c2n(C)c3cc([N+](=O)[O-])c([N+](=O)[O-])cc3[n+]2C)C(C)(C)c2ccccc21`, the IC50 entry is “inactive”.

As to `Cc1cccc2nc(-c3ccccc3)nc(N[C@@H](CO)c3ccccc3)c12`, the IC50 is > 80 µM (inactive).

On to `N=c1c(C(=O)NCc2ccc3c(c2)OCO3)cc2c(=O)n3ccccc3nc2n1Cc1cccnc1`, for which the IC50 is 12.4 µM.

For the compound `c1ccc(-c2nc(NCCCn3ccnc3)c3ccccc3n2)cc1`, the IC50 was > 80 µM (inactive).

`O=C1C(=Cc2cn(-c3ccccc3)nc2-c2ccc(OCc3ccccc3)cc2)SC(=S)N1CCS(=O)(=O)O`: the IC50 is 0.55 µM.

For the compound `NS(=O)(=O)c1ccc(CCNC(=O)c2ccc3nccnc3c2)cc1`, the IC50 result was “inactive”.

For `COc1ccccc1CNc1nc(NCc2ccc(NC(C)=O)cc2)c2sccc2n1`, the concentration for half-maximal inhibition (IC50) is 5.64 µM.

As to `O=C(/C=C/c1ccccc1Cl)Nc1ccc2c(c1)C(=O)NC2=O`, the IC50 is 2.29 µM.

On to `Clc1cccc(Cl)c1Cn1cnc(=NCc2ccco2)c2[nH]cnc21`, for which the IC50 result is “inactive”.

On to `Cc1cccc(-c2nc(NCCCN3CCOCC3)c3ccccc3n2)c1`, for which the IC50 is > 80 µM (inactive).

In the case of `CC(=O)Nc1ccc(S(=O)(=O)N2CCN(c3nc(NC4CCCC4)c4ccccc4n3)CC2)cc1`, the IC50 was 12.1 µM.

As to `Cc1ccc(-c2nc(NCCN3CCOCC3)c3ccccc3n2)cc1`, the IC50 was > 80 µM (inactive).

Consider `O=C(COc1ccc(/C=N/NC(=O)c2ccc(O)cc2)cc1)Nc1cccc([N+](=O)[O-])c1`, for which the IC50 is 5.71 µM.

Regarding `c1ccc(-c2cc(NCCN3CCCCC3)c3ccccc3n2)cc1`, the IC50 was 12.5 µM.

On to `Cc1nc(N)nc(N)c1-c1ccc([N+](=O)[O-])cc1`, for which the IC50 is > 80 µM (inactive).

Consider `c1ccc(-c2cc(N3CCCCC3)c3ccccc3n2)cc1`, for which the IC50 is > 80 µM (inactive).

`CC1C(=O)N(Cc2cn(Cc3ccco3)nn2)CCS(=O)(=O)N1Cc1ccc(-c2cccnc2)cc1` (stereo unspecified): the IC50 was 0.91 µM.

Turning to `O=C(N/N=C\C=C\c1ccc(Br)cc1)c1ccc2c(c1)OCO2`, the IC50 was 1.63 µM.

As for `CN(C)c1nc(N)nc(/C(C#N)=C/C2CC3C=CC2C3)n1` (stereo unspecified), the IC50 is > 80 µM (inactive).

Take `COCCNc1nc(NCc2cccc(OC)c2OC)c2sccc2n1`: the IC50 entry is “inactive”.

For the compound `CNc1nc(NC)c2cn[nH]c2n1`, the IC50 is > 80 µM (inactive).

Turning to `O=C(N/N=C/c1ccc(Br)s1)c1cccc([N+](=O)[O-])c1`, the IC50 is 1.97 µM.
